Reference: patent US11261183B2, “Sulfoximine glycosidase inhibitors” (Asceneuron SA, priority 2016, dated 2022)

Tests used:
[1] = target: Human O-GlcNAcase (His-Tagged hOGA) (Homo sapiens (Human), UniProt O60502); test: Human O-GlcNAcase enzyme inhibition assay; format: biochemical; conditions: His-Tagged hOGA 20 nM, FL-GlcNAc 10 μM, 60 min, room temperature, pH 6.5; read-out: Enzymatic OGA IC50
Experimental: Example B01: Human O-GlcNAcase enzyme inhibition assay
5 μl of the appropriate concentration of a solution of inhibitor in McIlvaine's Buffer (pH 6.5) in 2% DMSO (for a dose response curve calculation) is added into each well of a 384-well plate (Greiner, 781900). Then, 20 nM of His-Tagged hOGA and 10 μM of FL-GlcNAc (Fluorescein mono-beta-D-(2-deoxy-2-N-acetyl) glucopyranoside; Marker Gene Technologies Inc, M1485) were added to the 384-well plate for a final volume of 20 μl. After incubation for 60 min at room temperature, the reaction was terminated by the addition of 10 μL of stop buffer (200 mM glycine, pH 10.75).

[2] = Protein binding in mice plasma using Rapid Equilibrium Dialysis; format: in vitro ADME, CD1 mice; conditions: 37° C.; for fraction unbound at 5 h, 1 µM: male, CD1, mouse, plasma, pH 7.4, CD1 mouse plasma; for % fraction unbound in mouse plasma: CD1 mouse plasma, 5 hours
Experimental: Example B04: Protein binding in mice plasma using Rapid Equilibrium Dialysis
• CD1 Mice Plasma: pooled male, K2-EDTA ([…]2, Bioreclammation, USA • Phosphate Buffered Saline (1×PBS), pH 7.4, 100 mM (Sigma, Cat No. P4417) • RED inserts (Pierce, Cat No. 9006, 8 kDa MWCO) • Sample Analysis: LC-MS/MS Methods • Preparation of DMSO Stock Solution
From 20 mM DMSO stock solutions of reference and test compounds, 1 mM DMSO intermediate working solutions are prepared. From 1 mM intermediate working solutions, 100 μM DMSO working solutions are prepared. • Sample Preparation Procedure:
Selected plasma is brought from −20° C. to 37° C. using water bath before its use. Test solution is prepared by adding the DMSO working solution of the reference or test compound (2 μL; 100 μM) to the selected plasma (198 μL). Spiked plasma (200 μl) is transferred to sample compartment of RED insert placed in the teflon plate. 350 μl of 1×PBS is added in the buffer compartment of RED insert. The teflon plate is covered with sealing mat and agitated at 37° C. for 5 hours at 500 RPM in a Thermomixer. After incubation time, an aliquot of plasma (50 μl) from sample compartment is mixed with blank 1×PBS (50 μl). Similarly, an aliquot of buffer (50 μl) from buffer compartment is mixed with blank plasma (50 μl). Quenching solution (200 μL, acetonitrile containing internal standard tolbutamide (0.5 μg/mL)) is added and the resulting solutions are mixed using a vortex mixer and centrifuged (Eppendorf 5415, 13792 g). Supernatants are analyzed using a Mass Spectrometer. The sample (supernatant fraction, 5 μL) is injected into the LC-MS/MS instrument. • Chromatographic Conditions: LC-MS/MS: API 4000 LC-MS/MS Software: Analyst Version 1.6.1 Column Phenomenex Synergy 30*4.6*5μ Column Oven: 40° C. Mode: ESI Positive Injection volume: 5 μl Flow Rate: […] Buffer: 0.1% Formic acid in Water Method: Isocratic Method/Gradient Composition: A) 0.1% Formic acid in Water B) 0.1% Formic acid in Methanol
After the concentration of free drug and total drug has been determined by LCMS/MS, percent plasma protein binding can be calculated as follows:
[formula] Following this protocol, % fraction unbound in plasma from different species can be also measured.

Sequence of Human O-GlcNAcase (His-Tagged hOGA) (O60502 whole entry): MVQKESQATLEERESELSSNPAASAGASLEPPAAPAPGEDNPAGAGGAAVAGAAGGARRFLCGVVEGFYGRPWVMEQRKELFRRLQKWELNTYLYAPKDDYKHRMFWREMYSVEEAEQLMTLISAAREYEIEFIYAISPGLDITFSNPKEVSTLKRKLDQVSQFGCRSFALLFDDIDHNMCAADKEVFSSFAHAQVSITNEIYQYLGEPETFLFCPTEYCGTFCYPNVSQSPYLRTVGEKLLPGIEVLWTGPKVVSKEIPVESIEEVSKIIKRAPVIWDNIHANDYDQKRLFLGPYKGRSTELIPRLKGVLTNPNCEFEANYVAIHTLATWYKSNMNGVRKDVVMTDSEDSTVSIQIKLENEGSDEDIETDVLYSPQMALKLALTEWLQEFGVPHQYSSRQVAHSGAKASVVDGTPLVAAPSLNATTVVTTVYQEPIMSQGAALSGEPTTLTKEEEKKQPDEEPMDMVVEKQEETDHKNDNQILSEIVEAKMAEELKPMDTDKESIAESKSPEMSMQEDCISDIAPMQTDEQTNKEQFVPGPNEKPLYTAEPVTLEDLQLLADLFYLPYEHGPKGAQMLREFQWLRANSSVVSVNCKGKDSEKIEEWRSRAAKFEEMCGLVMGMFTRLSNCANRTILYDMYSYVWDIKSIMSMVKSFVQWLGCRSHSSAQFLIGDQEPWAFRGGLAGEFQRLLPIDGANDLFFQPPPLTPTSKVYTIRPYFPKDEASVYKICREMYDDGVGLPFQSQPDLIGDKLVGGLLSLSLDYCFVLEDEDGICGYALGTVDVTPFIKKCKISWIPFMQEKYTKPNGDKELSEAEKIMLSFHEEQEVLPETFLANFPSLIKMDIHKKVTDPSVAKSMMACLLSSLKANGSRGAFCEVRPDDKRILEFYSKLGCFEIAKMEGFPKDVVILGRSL

SMILES | IC50 [1] | fraction unbound at 5 h, 1 µM [2] | % fraction unbound in mouse plasma [2]
CN=S(C)(=O)c1ccc(N2CCN(C(C)c3ccc4c(c3)OCC4)CC2)nc1 (single isomer, unassigned) [Example 20, (6-(4-((S)-1-(2,3-dihydrobenzofuran-6-yl)ethyl)piperazin-1-yl)pyridin-3-yl)(methyl)(methylimino)-λ^6-sulfanone or (6-(4-((R)-1-(2,3-dihydrobenzofuran-6-yl)ethyl)piperazin-1-yl)pyridin-3-yl)(methyl)(methylimino)-λ^6-sulfanone] | < 50 nM | 0.223 | –
CC(c1ccc2scnc2c1)N1CCN(c2ncc(S(C)(=N)=O)cn2)CC1 (single isomer, unassigned) [Example 35] | < 50 nM | – | 33.7%
CN=S(C)(=O)c1cnc(N2CCN(C(C)c3ccc4scnc4c3)CC2)nc1 (racemic) [Example 25, (2-(4-(1-(benzo[d]thiazol-5-yl)ethyl)piperazin-1-yl)pyrimidin-5-yl)(methyl)(methylimino)-λ^6-sulfanone] | < 50 nM | 0.211 | –
CC(c1ccc2scnc2c1)N1CCN(c2ccc(S(C)(=N)=O)cn2)CC1 (racemic) [Example 26, (6-(4-(1-(benzo[d]thiazol-5-yl)ethyl)piperazin-1-yl)pyridin-3-yl)(imino)(methyl)-λ^6-sulfanone] | < 50 nM | 0.18 | –
CC(c1ccc2c(c1)OCC2)N1CCN(c2ncc(S(C)(=N)=O)cn2)CC1 (single isomer, unassigned) [Example 12] | < 50 nM | 0.424 | –
CC(c1ccc2scnc2c1)N1CCN(c2ncc3c(n2)CCS(=N)(=O)C3)CC1 (racemic) [Example 59, 2-(4-(1-(benzo[d]thiazol-5-yl)ethyl)piperazin-1-yl)-6-imino-5,6,7,8-tetrahydro-6λ^4-thiopyrano[4,3-d]pyrimidine 6-oxide] | < 50 nM | 0.0848 | –
CCCS(=N)(=O)c1cnc(N2CCN(C(C)c3ccc4scnc4c3)CC2)nc1 (racemic) [Example 24, (2-(4-(1-(benzo[d]thiazol-5-yl)ethyl)piperazin-1-yl)pyrimidin-5-yl)(imino)(propyl)-λ^6-sulfanone] | < 50 nM | 0.134 | –
CCCS(=N)(=O)c1cnc(N2CCN(C(C)c3ccc4c(c3)OCC4)CC2)nc1 (racemic) [Example 4, (2-(4-(1-(2,3-dihydrobenzofuran-6-yl)ethyl)piperazin-1-yl)pyrimidin-5-yl)(imino)(propyl)-λ^6-sulfanone] | < 50 nM | 0.142 | –
Cc1nc2cc(C(C)N3CCN(c4ccc(S(C)(=N)=O)cn4)CC3)ccc2s1 (racemic) [Example 46, imino(methyl)(6-(4-(1-(2-methylbenzo[d]thiazol-5-yl)ethyl)piperazin-1-yl)pyridin-3-yl)-λ^6-sulfanone] | < 50 nM | 0.115 | –
CN=S(C)(=O)c1cnc(N2CCN(C(C)c3ccc4scnc4c3)CC2)nc1 (single isomer, unassigned) [Example 37] | < 50 nM | 0.278 | –
CCS(=N)(=O)c1ccc(N2CCN(C(C)c3ccc4c(c3)OCC4)CC2)nc1 (racemic) [Example 6, (6-(4-(1-(2,3-dihydrobenzofuran-6-yl)ethyl)piperazin-1-yl)pyridin-3-yl)(ethyl)(imino)-λ^6-sulfanone] | < 50 nM | 0.261 | –
CC(c1ccc2scnc2c1)N1CCN(c2ncc(S(C)(=N)=O)cn2)CC1 (single isomer, unassigned) [Example 34, (2-(4-((S)-1-(benzo[d]thiazol-5-yl)ethyl)piperazin-1-yl)pyrimidin-5-yl)(imino)(methyl)-λ^6-sulfanone or (2-(4-((R)-1-(benzo[d]thiazol-5-yl)ethyl)piperazin-1-yl)pyrimidin-5-yl)(imino)(methyl)-λ^6-sulfanone] | < 50 nM | 0.257 | –
CC(c1ccc2scnc2c1)N1CCN(c2ccc(S(C)(=N)=O)cc2)CC1 (racemic) [Example 33, (4-(4-(1-(benzo[d]thiazol-5-yl)ethyl)piperazin-1-yl)phenyl)(imino)(methyl)-λ^6-sulfanone] | 50 to 200 nM | 0.132 | –
CN=S(C)(=O)c1ccc(N2CCN(C(C)c3ccc4sc(C)nc4c3)CC2)nc1 (racemic) [Example 47, methyl(6-(4-(1-(2-methylbenzo[d]thiazol-5-yl)ethyl)piperazin-1-yl)pyridin-3-yl)(methylimino)-λ^6-sulfanone] | 50 to 200 nM | 0.0959 | –
CC(c1ccc2c(c1)OCC2)N1CCN(c2ccc(S(C)(=N)=O)cc2)CC1 (racemic) [Example 11, (4-(4-(1-(2,3-dihydrobenzofuran-6-yl)ethyl)piperazin-1-yl)phenyl)(imino)(methyl)-λ^6-sulfanone] | < 50 nM | 0.21 | –
Cc1nc2cc(C(C)N3CCN(c4ncc(S(C)(=O)=NC(C)C)cn4)CC3)ccc2s1 (racemic) [Example 49, (isopropylimino)(methyl)(2-(4-(1-(2-methylbenzo[d]thiazol-5-yl)ethyl)piperazin-1-yl)pyrimidin-5-yl)-λ^6-sulfanone] | 50 to 200 nM | 0.0545 | –
Cc1nc2cc(C(C)N3CCN(c4ncc(S(C)(=N)=O)cn4)CC3)ccc2s1 (single isomer, unassigned) [Example 53] | < 50 nM | – | 12.81%
CCS(=N)(=O)c1cnc(N2CCN(C(C)c3ccc4scnc4c3)CC2)nc1 (racemic) [Example 23, (2-(4-(1-(benzo[d]thiazol-5-yl)ethyl)piperazin-1-yl)pyrimidin-5-yl)(ethyl)(imino)-λ^6-sulfanone] | < 50 nM | 0.215 | –
